Source: patent US9040516B2, “Uracil derivative and use thereof for medical purposes” (SUMITOMO DAINIPPON PHARMA CO., LTD., priority 2011, dated 2015)
Where a name gives a salt, the structure may show the parent alone.

Target: T1, human neutrophil elastase (Homo sapiens, UniProt P08246)
T1 construct: purchased Elastin Products Company
T1 sequence (P08246 30-267): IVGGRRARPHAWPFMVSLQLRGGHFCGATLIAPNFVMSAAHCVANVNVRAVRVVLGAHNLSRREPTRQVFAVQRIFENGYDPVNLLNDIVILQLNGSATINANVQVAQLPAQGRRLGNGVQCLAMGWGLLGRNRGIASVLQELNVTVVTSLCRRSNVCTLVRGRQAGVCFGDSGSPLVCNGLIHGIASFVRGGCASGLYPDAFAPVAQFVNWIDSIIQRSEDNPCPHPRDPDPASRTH
Assay: Inhibitory action against human neutrophil elastase (Test Example 1; fluorogenic substrate MeOSuc-AAPV-AMC, buffer with 2M NaCl, 0.002% Brij-35)
Assay type: biochemical
Settings: 37° C., read-out: IC50 value (compound concentration required for 50% inhibition of human neutrophil elastase)
Protocol: Assay buffer (0.4 unit/ml HNE (human neutrophil elastase, available from Elastin Products Company), 200 mM HEPES [N-(2-hydroxyethyl)piperazine-N′-(2-ethanesulfonic acid)], pH 7.5, 2M NaCl, 0.002% Brij-35) 100 μl, water for injection 40 μl and DMSO (dimethyl sulfoxide) solution of the present compound 20 μl were mixed in a 96 well plate and the mixed solutions were pre-incubated at 37° C. for five minutes. After pre-incubation, MeOSuc-AAPV-AMC (methoxysuccinyl-alanyl-alanyl-prolyl-valyl-aminomethyl cumaride (available from Sigma Aldrich Co.) solution as fluorogenic substrate (which was dissolved in 10% DMSO solution so as to adjust to 0.5 mM) 40 μl was added to the above-prepared mixed solution so as to initiate the reaction, and the mixture was incubated at 37° C. for five minutes. The fluorescence intensity of AMC was measured at an excitation wavelength of 380 nm and a fluorescence wavelength of 460 nm and the inhibition ratio was determined.

Point of comparison: `CCc1cccc(-n2c(C)c(-c3ccnn3-c3ccc(C#N)cc3)c(=O)n(C)c2=O)c1` [Example 108, 4-[5-[3,6-Dimethyl-2,4-dioxo-1-(3-ethylphenyl)-1,2,3,4-tetrahydropyrimidin-5-yl]-1H-pyrazol-1-yl]benzonitrile], IC50 332 nM. Against it:
- Cc1c(-c2ccnn2-c2ccc(C#N)cc2)c(=O)n(C)c(=O)n1-c1cccc(C(F)(F)F)c1 [Example 1, 4-[5-[3,6-dimethyl-2,4-dioxo-1-(3-trifluoromethylphenyl)-1,2,3,4-tetrahydropyrimidin-5-yl]-1H-pyrazol-1-yl]benzonitrile] — 17-fold lower, 19 nM
- CCCn1c(=O)c(-c2ccnn2-c2ccc(C#N)cc2)c(C)n(-c2cccc(C(F)(F)F)c2)c1=O [Example 2, 4-[5-[6-methyl-2,4-dioxo-3-propyl-1-(3-trifluoromethylphenyl)-1,2,3,4-tetrahydropyrimidin-5-yl]-1H-pyrazol-1-yl]benzonitrile] — 9.5-fold lower, 35 nM
- Cc1c(-c2ccnn2-c2ccc(C#N)cc2)c(=O)n(C)c(=O)n1-c1cccc(Cl)c1 [Example 17, 4-[5-[1-(3-chlorophenyl)-3,6-dimethyl-2,4-dioxo-1,2,3,4-tetrahydropyrimidin-5-yl]-1H-pyrazol-1-yl]benzonitrile] — 3.5-fold lower, 95 nM
- Cc1cccc(-n2c(C)c(-c3ccnn3-c3ccc(C#N)cc3)c(=O)n(C)c2=O)c1 [Example 37, 4-(5-(3,6-dimethyl-2,4-dioxo-1-m-tolyl-1,2,3,4-tetrahydropyrimidin-5-yl)-1H-pyrazol-1-yl)benzonitrile] — 1.7-fold lower, 191 nM
- Cc1c(-c2ccnn2-c2ccc(C#N)cc2)c(=O)n(CC(=O)O)c(=O)n1-c1cccc(C(F)(F)F)c1 [Example 72, 2-[5-[1-(4-Cyanophenyl)-1H-pyrazole-5-yl]-4-methyl-2,6-dioxo-3-(3-trifluoromethylphenyl)-2,3-dihydropyrimidin-1(6H)-yl]acetic acid] — 2.4-fold lower, 138 nM
- Cc1c(-c2ccnn2-c2ccc(C#N)cc2)c(=O)n(CCC(=O)O)c(=O)n1-c1cccc(C(F)(F)F)c1 [Example 73, 3-[5-[1-(4-Cyanophenyl)-1H-pyrazol-5-yl]-4-methyl-2,6-dioxo-3-(3-trifluoromethylphenyl)-2,3-dihydropyrimidin-1(6H)-yl]propanoic acid] — 1.6-fold higher, 535 nM
- Cc1c(-c2ccnn2-c2ccc(C#N)cc2)c(=O)n(CCCC(=O)O)c(=O)n1-c1cccc(C(F)(F)F)c1 [Example 74, 4-[5-[1-(4-Cyanophenyl)-1H-pyrazol-5-yl]-4-methyl-2,6-dioxo-3-(3-trifluoromethylphenyl)-2,3-dihydropyrimidin-1(6H)-yl]butanoic acid] — within 1.5-fold, 312 nM
- Cc1c(-c2ccnn2-c2ccc(C#N)cc2)c(=O)n(CCC(=O)N(C)C)c(=O)n1-c1cccc(C(F)(F)F)c1 [Example 75, 3-[5-[1-(4-Cyanophenyl)-1H-pyrazol-5-yl]-4-methyl-2,6-dioxo-3-(3-trifluoromethylphenyl)-2,3-dihydropyrimidin-1(6H)-yl]-N,N-dimethylpropaneamide] — 2-fold higher, 656 nM
- Cc1c(-c2ccnn2-c2ccc(C#N)cc2)c(=O)n(CC(N)=O)c(=O)n1-c1cccc(C(F)(F)F)c1 [Example 76, 2-[5-[1-(4-cyanophenyl)-1H-pyrazol-5-yl]-4-methyl-2,6-dioxo-3-(3-trifluoromethylphenyl)-2,3-dihydropyrimidin-1(6H)-yl]-acetamide] — within 1.5-fold, 232 nM
- CNC(=O)Cn1c(=O)c(-c2ccnn2-c2ccc(C#N)cc2)c(C)n(-c2cccc(C(F)(F)F)c2)c1=O [Example 77, 2-[5-[1-(4-cyanophenyl)-1H-pyrazol-5-yl]-4-methyl-2,6-dioxo-3-(3-trifluoromethylphenyl)-2,3-dihydropyrimidin-1(6H)-yl]-N-methylacetamide] — 1.8-fold lower, 184 nM
- CNC(=O)CCCn1c(=O)c(-c2ccnn2-c2ccc(C#N)cc2)c(C)n(-c2cccc(C(F)(F)F)c2)c1=O [Example 80, 4-[5-[1-(4-cyanophenyl)-1H-pyrazol-5-yl]-4-methyl-2,6-dioxo-3-(3-trifluoromethylphenyl)-2,3-dihydropyrimidin-1(6H)-yl]-N-methylbutaneamide] — 3.9-fold higher, 1290 nM
- Cc1c(-c2ccnn2-c2ccc(C#N)cc2)c(=O)n(CCCC(=O)N(C)C)c(=O)n1-c1cccc(C(F)(F)F)c1 [Example 81, 4-[5-[1-(4-cyanophenyl)-1H-pyrazol-5-yl]-4-methyl-2,6-dioxo-3-(3-trifluoromethylphenyl)-2,3-dihydropyrimidin-1(6H)-yl]-N,N-dimethylbutaneamide] — 1.9-fold higher, 616 nM
- Cc1c(-c2ccnn2-c2ccc(C#N)cc2)c(=O)n(CC(=O)N[C@@H](C)c2ccccc2)c(=O)n1-c1cccc(C(F)(F)F)c1 [Example 82, (S)-2-(5-(1-(4-cyanophenyl)-1H-pyrazole-5-yl)-4-methyl-2,6-dioxo-3-(3-(trifluoromethyl)phenyl)-2,3-dihydropyrimidin-1(6H)-yl)-N-(1-phenylethyl)acetamide] — 3.1-fold lower, 108 nM
- Cc1c(-c2ccnn2-c2ccc(C#N)cc2)c(=O)n(CCCO)c(=O)n1-c1cccc(C(F)(F)F)c1 [Example 83, 4-[5-[3-(3-Hydroxypropyl)-6-methyl-2,4-dioxo-1-(3-trifluoromethylphenyl)-1,2,3,4-tetrahydropyrimidin-5-yl]-1H-pyrazol-1-yl]benzonitrile] — 2.3-fold higher, 776 nM
- Cc1c(-c2ccnn2-c2ccc(C#N)cc2)c(=O)n(CCCCO)c(=O)n1-c1cccc(C(F)(F)F)c1 [Example 84, 4-[5-[3-(4-hydroxybutyl)-6-methyl-2,4-dioxo-1-(3-trifluoromethylphenyl)-1,2,3,4-tetrahydropyrimidin-5-yl]-1H-pyrazol-1-yl]benzonitrile] — 2.3-fold lower, 147 nM
- Cc1c(-c2ccnn2-c2ccc(C#N)cc2)c(=O)n(CCCCCN)c(=O)n1-c1cccc(C(F)(F)F)c1 [Example 85, 4-[5-[3-(5-Aminopentyl)-6-methyl-2,4-dioxo-1-(3-trifluoromethylphenyl)-1,2,3,4-tetrahydropyrimidin-5-yl]-1H-pyrazol-1-yl]benzonitrile hydrochloride] — 77-fold lower, 4.3 nM
- CC(=O)NCCCCCn1c(=O)c(-c2ccnn2-c2ccc(C#N)cc2)c(C)n(-c2cccc(C(F)(F)F)c2)c1=O [Example 86, N-[5-[5-[1-(4-Cyanophenyl)-1H-pyrazol-5-yl]-4-methyl-2,6-dioxo-3-(3-trifluoromethylphenyl)-2,3-dihydropyrimidin-1(6H)-yl]pentyl]acetamide] — 100-fold lower, 3.2 nM
- Cc1c(-c2ccnn2-c2ccc(C#N)cc2S(C)(=O)=O)c(=O)n(C)c(=O)n1-c1cccc(C(F)(F)F)c1 [Example 102, 4-[5-[3,6-Dimethyl-2,4-dioxo-1-(3-trifluoromethylphenyl)-1,2,3,4-tetrahydropyrimidin-5-yl]-1H-pyrazol-1-yl]-3-(methylsulfonyl)benzonitrile] — 2.2-fold lower, 150 nM
- Cc1c(-c2ccnn2-c2ccc(C#N)cc2)c(=O)n(C)c(=O)n1-c1cccc(C(=O)O)c1 [Example 103, 3-[5-[1-(4-Cyanophenyl)-1H-pyrazol-5-yl]-3,6-dimethyl-2,4-dioxo-3,4-dihydropyrimidin-1(2H)yl]benzoic acid] — 37-fold higher, 12200 nM
- Cc1c(-c2ccnn2-c2ccc(C#N)cc2)c(=O)n(C)c(=O)n1-c1cccc(C(N)=O)c1 [Example 104, 3-[5-[1-(4-Cyanophenyl)1H-pyrazol-5-yl]-3,6-dimethyl-2,4-dioxo-3,4-dihydropyrimidin-1(2H)yl]benzamide] — 280-fold higher, 92500 nM
- CNC(=O)c1cccc(-n2c(C)c(-c3ccnn3-c3ccc(C#N)cc3)c(=O)n(C)c2=O)c1 [Example 105, 3-[5-[1-(4-cyanophenyl)1H-pyrazol-5-yl]-3,6-dimethyl-2,4-dioxo-3,4-dihydropyrimidin-1(2H)yl]-N-methylbenzamide] — 67-fold higher, 22300 nM
- Cc1c(-c2ccnn2-c2ccc(C#N)cc2)c(=O)n(C)c(=O)n1-c1cccc(C(=O)N(C)C)c1 [Example 106, 3-[5-[1-(4-cyanophenyl)1H-pyrazol-5-yl]-3,6-dimethyl-2,4-dioxo-3,4-dihydropyrimidin-1(2H)yl]-N,N-dimethylbenzamide] — 42-fold higher, 13900 nM
- Cc1c(-c2ccnn2-c2ccc(C#N)cc2)c(=O)n(C)c(=O)n1-c1cccc(-c2ccccc2)c1 [Example 107, 4-(5-(1-(Biphenyl-3-yl)-3,6-dimethyl-2,4-dioxo-1,2,3,4-tetrahydropyrimidin-5-yl)-1H-pyrazol-1-yl)benzonitrile] — 16-fold higher, 5400 nM

Target: T1, human neutrophil elastase
Assay: Inhibitory action 2 against human neutrophil elastase (Test Example 2; fluorogenic substrate MeOSuc-AAPV-AMC, buffer with 400 mM NaCl, 0.2 mg/ml BSA)
Assay type: biochemical
Settings: 37° C., read-out: IC50 value (compound concentration required for 50% inhibition of human neutrophil elastase)
Protocol: Assay buffer (0.4 unit/ml HNE (human neutrophil elastase, available from Elastin Products Company), 200 mM HEPES [N-(2-hydroxyethyl)piperazine-N′-(2-ethanesulfonic acid)], pH 7.5, 400 mM NaCl, 0.2 mg/ml BSA (bovine serum albumin)) 100 μl, water for injection 20 μl and 1% DMSO (dimethyl sulfoxide) solution of the present compound 20 μl were mixed in a 96 well plate and the mixed solutions were pre-incubated at 37° C. for five minutes. After pre-incubation, MeOSuc-AAPV-AMC (methoxysuccinyl-alanyl-alanyl-prolyl-valyl-aminomethyl cumaride (available from Sigma Aldrich Corp.) solution as fluorogenic substrate (which was dissolved in 10% DMSO solution so as to adjust to 0.5 mM) 40 μl was added to the above-prepared mixed solution so as to initiate the reaction, and the mixture was incubated at 37° C. for five minutes. The fluorescence intensity of AMC was measured at an excitation wavelength of 380 nm and a fluorescence wavelength of 460 nm and the inhibition ratio was determined.

Point of comparison: `Cc1c(-c2ccnn2-c2ccc(C#N)cc2)c(=O)n(C)c(=O)n1-c1cccc(C(F)(F)F)c1` [Example 1, 4-[5-[3,6-dimethyl-2,4-dioxo-1-(3-trifluoromethylphenyl)-1,2,3,4-tetrahydropyrimidin-5-yl]-1H-pyrazol-1-yl]benzonitrile], IC50 16.9 nM. Against it:
- CCCn1c(=O)c(-c2ccnn2-c2ccc(C#N)cc2)c(C)n(-c2cccc(C(F)(F)F)c2)c1=O [Example 2, 4-[5-[6-methyl-2,4-dioxo-3-propyl-1-(3-trifluoromethylphenyl)-1,2,3,4-tetrahydropyrimidin-5-yl]-1H-pyrazol-1-yl]benzonitrile] — within 1.5-fold, 18.6 nM
- Cc1c(-c2ccnn2-c2ccc(C#N)cc2)c(=O)n(C)c(=O)n1-c1cccc(Cl)c1 [Example 17, 4-[5-[1-(3-chlorophenyl)-3,6-dimethyl-2,4-dioxo-1,2,3,4-tetrahydropyrimidin-5-yl]-1H-pyrazol-1-yl]benzonitrile] — within 1.5-fold, 23.4 nM
- Cc1cccc(-n2c(C)c(-c3ccnn3-c3ccc(C#N)cc3)c(=O)n(C)c2=O)c1 [Example 37, 4-(5-(3,6-dimethyl-2,4-dioxo-1-m-tolyl-1,2,3,4-tetrahydropyrimidin-5-yl)-1H-pyrazol-1-yl)benzonitrile] — 3.8-fold higher, 64.2 nM
- Cc1c(-c2c(C(N)=O)cnn2-c2ccc(C#N)cc2)c(=O)n(C)c(=O)n1-c1cccc(C(F)(F)F)c1 [Example 148] — within 1.5-fold, 14.5 nM

System: not given
Assay: not given
Settings: not given

Work on `Cc1c(-c2c(C(N)=O)cnn2-c2ccc(C#N)cc2)c(=O)n(C)c(=O)n1-c1cccc(C(F)(F)F)c1` [Example 148] yielded a melting point of 263 °C.
